The test system of data set [1] is fibrin-induced microglia activation. Put plainly: Image-based assay of fibrin-induced microglia activation (HTS and dose response). It counts as cell-based, rat. The settings on record: for inhibition at 10 µM: read-out: Fibrin % inhibition.
Data set [2] deals with primary rat microglia.
Data set [3] has as its system primary rat microglia. Put plainly: Cell toxicity (dead cells, size <150 μm2) in LPS assay. The settings on record: for IC50: read-out: Cell Toxicity IC50 (uM) [LPS assay].
The subject of data set [4] is fibrin- and LPS-induced microglia activation. Put plainly: cells. Type of data set: cell-based, rat. The settings on record: for inhibition at 10 µM: Rattus norvegicus.
Data set [5] deals with primary rat microglia. This is another data set of the same source.
Data set [6] has as its system primary rat microglia. Put plainly: Cell toxicity (dead cells, size <150 μm2) in coated fibrin (cFib) assay.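 As to Fibrin % cell toxicity: share of dead cells sized under 150 µm2 at 10 µM in fibrin-stimulated microglia HTS.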
For data set [7], the system named is LPS-induced microglia activation. Put plainly: Image-based assay of LPS-induced microglia activation (HTS and dose response). Type of data set: cell-based, rat. The settings on record: for inhibition at 10 µM: read-out: LPS % inhibition.
The nature of data set [8]: in vitro. The settings on record: rat, Cell Toxicity IC50 (uM) [cFib assay], cFib assay.
Data set [9] in a line: in vitro. The settings on record: rat.
Setting [10] is: primary microglia HTS, fibrin stimulation, increased cell size (>800 μm^2) as marker of activation.
[11] abbreviates: HTS of 1907 compounds, quadrant by fibrin and LPS inhibition.
[12] abbreviates: hit classification in microglia HTS.
The mark [13] stands for this setting: quadrant by fibrin and LPS inhibition in HTS of 1907 compounds.
[14] abbreviates: read-out: Cell Toxicity IC50 (uM) [cFib assay], cFib assay.
Setting [15] is: LPS-induced microglia activation, dose response, read-out: LPS IC50 (uM) (Suppl. Table 7).
[16] abbreviates: Table 1, dose response 0.001-20 μM, triplicates, primary rat microglia, 48 h, read-out: LPS IC50.
Setting [17] is: dose response, LPS-induced microglia activation, read-out: LPS IC50.
Where [18] appears, read: primary microglia HTS, LPS stimulation, increased cell size (>800 μm^2) as marker of activation.
Where [19] appears, read: Rattus norvegicus, Microglia, 48 h, Table 1, dose response 0.001-20 μM, triplicates, primary rat microglia, 48 h, read-out: Fibrin IC50.
Setting [20] is: Rattus norvegicus, Microglia, dose response, fibrin-induced microglia activation, read-out: Fibrin IC50.
Setting [21] is: Rattus norvegicus, Microglia, fibrin-induced microglia activation, dose response, read-out: Fibrin IC50 (uM) (Suppl. Table 7).
[22] abbreviates: Microglia, HTS hit classification, read-out: Hit.
[23] abbreviates: hit classification in microglia HTS, read-out: Cherry-picked Hit (Suppl. Table 7).
The mark [24] stands for this setting: Rattus norvegicus, Microglia, 48 h, Table 1, dose response 0.001-20 μM, triplicates, primary rat microglia, 48 h, read-out: LPS IC50.
The mark [25] stands for this setting: Rattus norvegicus, Microglia, LPS-induced microglia activation, dose response, read-out: LPS IC50 (uM) (Suppl. Table 7).
The mark [26] stands for this setting: Rattus norvegicus, Microglia, dose response, LPS-induced microglia activation, read-out: LPS IC50.
Setting [27] is: Rattus norvegicus, Microglia, primary microglia HTS, fibrin stimulation, increased cell size (>800 μm^2) as marker of activation.
Setting [28] is: Rattus norvegicus, Microglia, 48 h, primary microglia HTS, LPS stimulation, increased cell size (>800 μm^2) as marker of activation.

Where two headings read alike, the source gives them in different places. A value given as a limit tells only on which side of the number the result lay.

For `COc1cc2c(cc1O)CC[C@@H]1[C@@H]2CC[C@]2(C)[C@@H](O)CC[C@@H]12` [2-methoxyestradiol, reference compound], the “Fibrin Selectivity” value in [1] is 2. Besides, in data set [1], the “Fibrin Selectivity (LOG10)” value is reported as 0.21. Besides, the IC50 is 3 µM in [1] (Table 1, dose response 0.001-20 μM, triplicates, primary rat microglia, 48 h, read-out: Fibrin IC50); 3 µM in data set [1] (Table 3, read-out: Fibrin IC50 (uM) (Suppl. Table 7)); 3 µM in [1] (dose response, fibrin-induced microglia activation, read-out: Fibrin IC50); 3 µM in [1] (fibrin-induced microglia activation, dose response, read-out: Fibrin IC50 (uM) (Suppl. Table 7)); over 20 µM in the data set with primary rat microglia [3] (LPS assay); over 20 µM with primary rat microglia [3] (Table 3). Moreover, the IC50 in the data set with primary rat microglia [6] (read-out: Cell Toxicity IC50 (uM) [cFib assay], Table 3) was over 20 µM; in the data set on primary rat microglia [6] (setting [14]) it was over 20 µM; in data set [7] (setting [15]), 5 µM; in data set [7] (setting [16]), 5 µM; in data set [7] (Table 3, read-out: LPS IC50 (uM) (Suppl. Table 7)), 5 µM; in data set [7] (setting [17]) it was 5 µM. Further, the Fibrin % inhibition in [1] (setting [10]) is 63%. Further, the “Fibrin % cell toxicity” value in the data set on primary rat microglia [2] is 2%. In data set [4] (HTS hit classification), the Hit result was “HIT (Hits were defined as molecules that exhibited greater than 50% inhibition of either fibrin or LPS activation)”. In addition, the “Quadrant (FIG. 5b)” value in data set [4] (setting [11]) was “Q2”; in [4] (Table 1, screen at 10 μM), “Q2”; in data set [4] (Table 3, screen at 10 μM) it was “Q2”; in data set [4] (setting [13]), “Q2”. Besides, the “Cherry-picked Hit (Suppl. Table 7)” value in data set [4] (Table 3) and in [4] (setting [12]) was “HIT (Hits were defined as molecules that exhibited greater than 50% inhibition of either fibrin or LPS activation)” throughout. Also, the “LPS % cell toxicity” value in the data set with primary rat microglia [5] is 2%. Further, the LPS % inhibition in data set [7] (setting [18]) turned out to be 65%.
Turning to `CC(=O)[C@@]1(O)CC[C@H]2[C@@H]3C=C(Cl)C4=CC(=O)[C@@H]5C[C@@H]5[C@]4(C)[C@H]3CC[C@@]21C` [Cyproterone, reference compound], the Fibrin % inhibition in [1] (setting [10]) is on record as 51%. The “Fibrin % cell toxicity” value in the data set with primary rat microglia [2] turned out to be 1%. For the same compound, the IC50 (in the data set with primary rat microglia [3] (LPS assay); with primary rat microglia [6] (setting [14]); in [7] (setting [15]); in [7] (setting [16]); in data set [7] (setting [17])) was over 20 µM in each case. In data set [4] (HTS hit classification), the Hit result is “HIT (Hits were defined as molecules that exhibited greater than 50% inhibition of either fibrin or LPS activation)”. For the same compound, the “Quadrant (FIG. 5b)” value is “Q3” in [4] (setting [11]); “Q3” in data set [4] (Table 1, screen at 10 μM); “Q3” in data set [4] (setting [13]). Moreover, the “Cherry-picked Hit (Suppl. Table 7)” value in data set [4] (setting [12]) is recorded as “HIT (Hits were defined as molecules that exhibited greater than 50% inhibition of either fibrin or LPS activation)”. In the data set with primary rat microglia [5], the “LPS % cell toxicity” value was found to be 0%. In [7] (setting [18]), the LPS % inhibition amounted to 5%.
Turning to `C[C@@H]1C[C@H]2[C@@H]3CCC4=CC(=O)C=C[C@]4(C)[C@@]3(F)[C@@H](O)C[C@]2(C)[C@@]1(O)C(=O)CO` [Dexamethasone, reference compound], the IC50 is over 20 µM in the data set “in vitro [8]”; 15 µM in [1] (setting [19]); 0.002 µM in [1] (Rattus norvegicus, Microglia, Table 7, read-out: fib_IC50); 15 µM in [1] (setting [20]); 15 µM in data set [1] (setting [21]); over 20 µM in “in vitro [9]”. Moreover, the IC50 in data set [7] (setting [24]) is over 20 µM; in data set [7] (setting [25]) it was over 20 µM; in data set [7] (Rattus norvegicus, Microglia, Table 7, read-out: LPS_IC50) it was 0.002 µM; in data set [7] (setting [26]) it was over 20 µM. Also, the “Quadrant (FIG. 5b)” value was “Q3” in [4] (setting [11]); “Q3” in [4] (Table 1, screen at 10 μM); “Q3” in data set [4] (Table 2, screen at 10 μM). The inhibition at 10 µM in data set [4] (setting [22]) and in data set [4] (setting [23]) was over 50% throughout.
On to `CC1(C)O[C@@H]2C[C@H]3[C@@H]4C[C@H](F)C5=CC(=O)C=C[C@]5(C)[C@H]4[C@@H](O)C[C@]3(C)[C@]2(C(=O)CO)O1` [Flunisolide, reference compound], for which the IC50 in the data set “in vitro [8]” was over 20 µM; in data set [1] (setting [19]), under 0.001 µM; in data set [1] (setting [20]), under 0.001 µM; in [1] (setting [21]), under 0.001 µM; in “in vitro [9]”, over 20 µM; in data set [7] (setting [24]), under 0.001 µM. Further, the IC50 in data set [7] (setting [25]) and in data set [7] (setting [26]) was under 0.001 µM throughout. Besides, the inhibition at 10 µM in data set [1] (setting [27]) is 104%; in [4] (setting [22]) it was over 50%; in [4] (setting [23]), over 50%; in [7] (setting [28]), 101%. The “Quadrant (FIG. 5b)” value is on record as “Q2” in [4] (setting [11]); “Q2” in data set [4] (Table 1, screen at 10 μM); “Q2” in [4] (setting [13]).
In the case of `CC[C@@H](C(=O)[C@@H](C)[C@@H](O)[C@H](C)[C@@H]1O[C@@H]([C@@H](CC)C(=O)O)CC[C@@H]1C)[C@H]1O[C@]2(C=C[C@@H](O)[C@]3(CC[C@@](C)([C@H]4CC[C@](O)(CC)[C@H](C)O4)O3)O2)[C@H](C)C[C@@H]1C` [Salinomycin, sodium, reference compound], the IC50 in the data set “in vitro [8]” was over 20 µM; in [1] (setting [19]), 2 µM; in data set [1] (setting [20]), 2 µM; in data set [1] (setting [21]) it was 2 µM; in the data set on primary rat microglia [6] (Rattus norvegicus, Microglia, read-out: dead_IC50 (uM), Table 7, fibrin or LPS assay not specified), 3.86 µM; in data set [7] (setting [24]) it was 2 µM. The IC50 in data set [7] (setting [25]) and in data set [7] (setting [26]) was 2 µM each time. The inhibition at 10 µM is 100% in [1] (setting [27]), over 50% in data set [4] (setting [22]), over 50% in [4] (setting [23]) and 101% in data set [7] (setting [28]). In addition, the “LPS % cell toxicity” value in the data set with primary rat microglia [3] (primary microglia HTS, LPS stimulation, decreased size (<150 μm^2) as marker of toxicity) turned out to be 1%. The “Quadrant (FIG. 5b)” value is reported as “Q2” in [4] (setting [11]); “Q2” in data set [4] (Table 1, screen at 10 μM); “Q2” in data set [4] (setting [13]). For the same compound, the Activity entry in data set [4] (Table 7, fib = fibrin, LPS, tox = toxicity, sodium) is “fib/LPS”. For the same compound, the “Fibrin % cell toxicity” value in the data set on primary rat microglia [6] (primary microglia HTS, fibrin stimulation, decreased size (<150 μm^2) as marker of toxicity) is listed as 3%.
Turning to “Prednisolone sodium phosphate [reference compound]”, in data set [1], the Fibrin % inhibition came out at 108%. Also, the IC50 in data set [1] (read-out: Fibrin IC50) is 0.1 µM; in data set [1] (read-out: Fibrin IC50 (uM) (Suppl. Table 7)) it was 0.1 µM; with primary rat microglia [2], over 20 µM; in the data set on primary rat microglia [5], over 20 µM; in data set [7] (read-out: LPS IC50), 4 µM; in data set [7] (read-out: LPS IC50 (uM) (Suppl. Table 7)), 4 µM. The “Fibrin % cell toxicity” value in the data set on primary rat microglia [2] was determined as 3%. Besides, in [4], the “Cherry-picked Hit (Suppl. Table 7)” value is reported as “HIT (key: HIT: Hits were defined as molecules that exhibited greater than 50% inhibition of either fibrin or LPS activation)”. In addition, the Hit result in [4] is recorded as “HIT (key: HIT: Hits were defined as molecules that exhibited greater than 50% inhibition of either fibrin or LPS activation)”. Also, in data set [4], the “Quadrant (FIG. 5b)” value is on record as “Q2”. For the same compound, the “LPS % cell toxicity” value in the data set with primary rat microglia [5] is reported as 3%. The compound also yielded an LPS % inhibition in data set [7] of 96%.
Sulfanilate Zinc: the Fibrin % inhibition in [1] (10 µM) is −6%. Further, in the data set with primary rat microglia [2], the “Fibrin % cell toxicity” value worked out at 0%. Also, the “Quadrant (FIG. 5b)” value in data set [4] is listed as “Q4”. Also, the “LPS % cell toxicity” value in the data set on primary rat microglia [5] is reported as 0%. The LPS % inhibition in data set [7] (10 µM) is listed as 15%.
Turning to Vitamin A, the Fibrin % inhibition in data set [1] (primary microglia HTS, 10 μM, fibrin-stimulated, cell size >800 μm^2 as marker of activation) came to 15%. For the same compound, the “Fibrin % cell toxicity” value in the data set on primary rat microglia [2] was found to be 1%. The “Quadrant (FIG. 5b)” value in data set [4] (setting [11]) is on record as “Q4”. The “LPS % cell toxicity” value in the data set on primary rat microglia [5] worked out at 0%. This compound also gave an LPS % inhibition in data set [7] (primary microglia HTS, 10 μM, LPS-stimulated, cell size >800 μm^2 as marker of activation) of 17%.

(Values after patent US20210330611A1, “THERAPY FOR NEUROLOGICAL DISEASES/DISORDERS” (priority 2020, published 2021).)
